The source of these data is patent publication US12692254B2, “Benzimidazole inhibitors of PAD enzymes” (BRISTOL-MYERS SQUIBB COMPANY, priority 2018, dated 2026).

This test deals with human PAD4 (hPAD4) (Homo sapiens, UniProt Q9UM07). The experiment in a line: RFMS human PAD4 functional assay (rapid-fire mass spectrum). The test is classed as biochemical. Particulars: 5 nM hPAD4 enzyme, 250 μM BAEE, 50 μM Calcium; 30 min preincubation, 90 min reaction at 37° C. The method, boiled down:
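PAD4 (10 nM) preincubated 30 min with compound (top final 50 μM), then BAEE substrate added in pH 7.5 HEPES buffer with DTT, 50 μM calcium, TPEN; 90 min at 37° C. After TCA quench, citrulline derivatized with phenyl glyoxal (4 mM final, 30 min, 37° C) and quantified by RapidFire MS against internal standard.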

human PAD4 (hPAD4), sequence (Q9UM07 whole entry): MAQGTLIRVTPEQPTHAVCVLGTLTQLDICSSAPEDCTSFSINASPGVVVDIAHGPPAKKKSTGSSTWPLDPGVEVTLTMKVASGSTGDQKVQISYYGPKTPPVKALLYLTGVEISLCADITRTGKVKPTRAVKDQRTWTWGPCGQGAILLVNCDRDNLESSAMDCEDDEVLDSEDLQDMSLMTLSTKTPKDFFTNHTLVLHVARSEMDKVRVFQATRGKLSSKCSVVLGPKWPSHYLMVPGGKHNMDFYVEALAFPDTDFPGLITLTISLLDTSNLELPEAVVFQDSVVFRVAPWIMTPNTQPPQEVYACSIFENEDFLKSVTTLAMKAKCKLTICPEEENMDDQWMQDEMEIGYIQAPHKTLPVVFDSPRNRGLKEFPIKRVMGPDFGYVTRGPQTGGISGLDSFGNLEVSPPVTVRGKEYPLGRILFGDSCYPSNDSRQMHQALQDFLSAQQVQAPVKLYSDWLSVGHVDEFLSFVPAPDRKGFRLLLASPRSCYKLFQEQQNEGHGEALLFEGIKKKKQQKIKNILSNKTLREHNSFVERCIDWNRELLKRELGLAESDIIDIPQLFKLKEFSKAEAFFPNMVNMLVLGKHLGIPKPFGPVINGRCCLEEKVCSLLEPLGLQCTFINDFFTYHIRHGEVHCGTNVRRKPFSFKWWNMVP

Consider `COc1cc(C(=O)N2CC3CCC2[C@@H]3N)cc2nc(-c3cc4ccccc4n3CC3CC3)n(CC3CCS(=O)(=O)C3)c12` (stereo partly drawn) [Example 290, ((7R)-7-amino-2-azabicyclo[2.2.1]heptan-2-yl)(2-(1-(cyclopropylmethyl)-1H-indol-2-yl)-1-((1,1-dioxidotetrahydrothiophen-3-yl)methyl)-7-methoxy-1H-benzo[d]imidazol-5-yl)methanone], for which the 50% inhibitory concentration (IC50) (commonly the point on the concentration scale where inhibition reaches its midpoint) amounted to 1590 nM.

Turning to `COc1cc(C(=O)N2C[C@H]3CC[C@@H]2[C@@H]3N)cc2nc(-c3cc4cccnc4n3CC3CC3)n(C3CN(c4ccncn4)C3)c12` [Example 86, (1R,4R,7R)-2-{2-[1-(cyclopropylmethyl)-1H-pyrrolo[2,3-b]pyridin-2-yl]-7-methoxy-1-[1-(pyrimidin-4-yl)azetidin-3-yl]-1H-1,3-benzodiazole-5-carbonyl}-2-azabicyclo[2.2.1]heptan-7-amine], the IC50 amounted to 1680 nM.

For `CCn1cc(Cn2c(-c3cc4cccnc4n3CC3CC3)nc3cc(C(=O)N4CC5CCC4[C@@H]5N)cc(OC)c32)cn1` (stereo partly drawn) [Example 489, (7R)-2-{2-[1-(cyclopropylmethyl)-1H-pyrrolo[2,3-b]pyridin-2-yl]-1-[(1-ethyl-1H-pyrazol-4-yl)methyl]-7-methoxy-1H-1,3-benzodiazole-5-carbonyl}-2-azabicyclo[2.2.1]heptan-7-amine], the IC50 worked out at 55 nM.

In the case of `COc1cc(C(=O)N2CC3CCC2[C@@H]3N)cc2nc(-c3cc4ccccc4n3CC3CC3)n(Cc3cnn(-c4cccnc4)c3)c12` (stereo partly drawn) [Example 368, (7R)-2-{2-[1-(cyclopropylmethyl)-1H-indol-2-yl]-7-methoxy-1-{[1-(pyridin-3-yl)-1H-pyrazol-4-yl]methyl}-1H-1,3-benzodiazole-5-carbonyl}-2-azabicyclo[2.2.1]heptan-7-amine], the IC50 was determined as 29 nM.

With `COc1cc(C(=O)N2CC3CCC2[C@@H]3N)cc2nc(-c3cc4cccnc4n3CC3CC3)n(CC3CN(C(=O)c4cccc(F)c4)C3)c12` (stereo partly drawn) [Example 464, (7R)-2-{2-[1-(cyclopropylmethyl)-1H-pyrrolo[2,3-b]pyridin-2-yl]-1-{[1-(3-fluorobenzoyl)azetidin-3-yl]methyl}-7-methoxy-1H-1,3-benzodiazole-5-carbonyl}-2-azabicyclo[2.2.1]heptan-7-amine], the concentration for half-maximal inhibition (IC50) amounted to 76 nM.

Consider `COc1cc(C(=O)N2C[C@H]3CC[C@@H]2[C@@H]3N)cc2nc(-c3cc4cccnc4n3CC3CC3)n(CCNS(C)(=O)=O)c12` [Example 286, N-(2-{5-[(1R,4R,7R)-7-amino-2-azabicyclo[2.2.1]heptane-2-carbonyl]-2-[1-(cyclopropylmethyl)-1H-pyrrolo[2,3-b]pyridin-2-yl]-7-methoxy-1H-1,3-benzodiazol-1-yl}ethyl)methanesulfonamide], for which the half-inhibitory concentration (IC50) amounted to 1190 nM.

Consider `COc1cc(C(=O)N2C[C@H](N)C[C@@H](F)C2)cc2nc(-c3cc4cccnc4n3CC3CC3)n(Cc3cnn(-c4cccn(C)c4=O)c3)c12` [Example 347, 3-[4-({5-[(3R,5R)-3-amino-5-fluoropiperidine-1-carbonyl]-2-[1-(cyclopropyimethyl)-1H-pyrrolo[2,3-b]pyridin-2-yl]-7-methoxy-1H-1,3-benzodiazol-1-yl}methyl)-1H-pyrazol-1-yl]-1-methyl-1,2-dihydropyridin-2-one], for which the IC50 was determined as 97 nM.

Consider `C=CC(=O)N1CC(Cn2c(-c3cc4cccnc4n3CC3CC3)nc3cc(C(=O)N4C[C@H]5CC[C@@H]4[C@@H]5N)cc(OC)c32)C1` [Example 124, 1-[3-({5-[(1R,4R,7R)-7-amino-2-azabicyclo[2.2.1]heptane-2-carbonyl]-2-[1-(cyclopropylmethyl)-1H-pyrrolo[2,3-b]pyridin-2-yl]-7-methoxy-1H-1,3-benzodiazol-1-yl}methyl)azetidin-1-yl]prop-2-en-1-one], for which the 50% inhibitory concentration (IC50) worked out at 102 nM.

On to `COc1cc(C(=O)N2C[C@H]3CC[C@@H]2[C@@H]3N)cc2nc(-c3cc4ccccc4n3CC3CC3)n(CC3CN(C(=O)c4ccccc4C#N)C3)c12` [Example 159, 2-[3-({5-[(1R,4R,7R)-7-amino-2-azabicyclo[2.2.1]heptane-2-carbonyl]-2-[1-(cyclopropylmethyl)-1H-indol-2-yl]-7-methoxy-1H-1,3-benzodiazol-1-yl}methyl)azetidine-1-carbonyl]benzonitrile], for which the IC50 stood at 24 nM.

For the compound `COc1cc(C(=O)N2C[C@H]3CC[C@@H]2[C@@H]3N)cc2nc(-c3cc4cccnc4n3CC3CC3)n(CC3CN(C(=O)CC4CC4)C3)c12` [Example 115, 1-[3-({5-[(1R,4R,7R)-7-amino-2-azabicyclo[2.2.1]heptane-2-carbonyl]-2-[1-(cyclopropylmethyl)-1H-pyrrolo[2,3-b]pyridin-2-yl]-7-methoxy-1H-1,3-benzodiazol-1-yl}methyl)azetidin-1-yl]-2-cyclopropylethan-1-one], the IC50 was 59 nM.

Take `COc1cc(C(=O)N2CC3CCC2[C@@H]3N)cc2nc(-c3cc4cccnc4n3CC3CC3)n(Cc3cnn(-c4cc(F)cnc4O)c3)c12` (stereo partly drawn) [Example 380, 3-[4-({5-[(7R)-7-amino-2-azabicyclo[2.2.1]heptane-2-carbonyl]-2-[1-(cyclopropylmethyl)-1H-pyrrolo[2,3-b]pyridin-2-yl]-7-methoxy-1H-1,3-benzodiazol-1-yl)methyl}-1H-pyrazol-1-yl]-5-fluoropyridin-2-ol]: the concentration for half-maximal inhibition (IC50) turned out to be 37 nM.

`C#CC(=O)N1CC(Cn2c(-c3cc4cccnc4n3CC3CC3)nc3cc(C(=O)N4CC5CCC4[C@@H]5N)cc(OC)c32)C1` (stereo partly drawn) [Example 133, 1-[3-({5-[(1R,4R,7R)-7-amino-2-azabicyclo[2.2.1]heptane-2-carbonyl]-2-[1-(cyclopropylmethyl)-1H-pyrrolo[2,3-b]pyridin-2-yl]-7-methoxy-1H-1,3-benzodiazol-1-yl}methyl)azetidin-1-yl]prop-2-yl-1-one]: the IC50 worked out at 165 nM.

Consider `Cc1cc(C(=O)N2CC3CCC2[C@@H]3N)cc2nc(-c3cc4cccnc4n3CC3CC3)n(CC3CN(C(=O)c4ccc(C#N)cc4)C3)c12` (stereo partly drawn) [Example 471, 4-[3-({5-[(7R)-7-amino-2-azabicyclo[2.2.1]heptane-2-carbonyl]-2-[1-(cyclopropylmethyl)-1H-pyrrolo[2,3-b]pyridin-2-yl]-7-methyl-1H-1,3-benzodiazol-1-yl}methyl)azetidine-1-carbonyl]benzonitrile], for which the IC50 worked out at 228 nM.

For the compound `COc1cc(C(=O)N2C[C@H]3CC[C@@H]2[C@@H]3N)cc2nc(-c3cc4cccnc4n3CC3CC3)n(C3CCN(C(=O)c4ccnc(F)c4)CC3)c12` [Example 241, (1R,4R,7R)-2-{2-[1-(cyclopropylmethyl)-1H-pyrrolo[2,3-b]pyridin-2-yl]-1-[1-(2-fluoropyridine-4-carbonyl)piperidin-4-yl]-7-methoxy-1H-1,3-benzodiazole-5-carbonyl}-2-azabicyclo[2.2.1]heptan-7-amine], the half-inhibitory concentration (IC50) was determined as 2540 nM.

Take `COc1cc(C(=O)N2CC3CCC2[C@@H]3N)cc2nc(-c3cc4cccnc4n3CC3CC3)n(C[C@@H]3CCN(c4ccnc(C#N)n4)C3)c12` (stereo partly drawn) [Example 205, 4-[(3R)-3-({5-[(1R,4R,7R)-7-amino-2-azabicyclo[2.2.1]heptane-2-carbonyl]-2-[1-(cyclopropylmethyl)-1H-pyrrolo[2,3-b]pyridin-2-yl]-7-methoxy-1H-1,3-benzodiazol-1-yl}methyl)pyrrolidin-l-yl]pyrimidine-2-carbonitrile]: the concentration for half-maximal inhibition (IC50) came out at 37 nM.
